Data on two molecules can be found in PMC8760490, “Discovery of novel furanylbenzamide inhibitors that target oncogenic tyrosine phosphatase SHP2 in leukemia cells” (The Journal of Biological Chemistry, 2021).

pIC50: −log10 of the molar value.

In one assay the target is T1, SHP2cat (Homo sapiens, UniProt Q06124).
T1 construct: the SHP2 catalytic domain (SHP2cat; residues 248–527); made in house
T1 sequence (Q06124 248-527): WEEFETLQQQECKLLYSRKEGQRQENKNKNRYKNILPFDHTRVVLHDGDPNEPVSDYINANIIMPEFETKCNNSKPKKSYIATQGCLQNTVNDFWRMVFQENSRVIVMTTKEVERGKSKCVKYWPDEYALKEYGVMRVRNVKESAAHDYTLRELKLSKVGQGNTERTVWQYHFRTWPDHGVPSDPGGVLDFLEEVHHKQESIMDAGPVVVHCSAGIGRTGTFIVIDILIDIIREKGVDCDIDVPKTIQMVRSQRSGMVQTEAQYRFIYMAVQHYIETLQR
Kind of assay: OMFP fluorescence phosphatase inhibition assay, SHP2cat. Type of assay: biochemical. As to conditions: substrate OMFP at Km (50 μM); read-out: IC50 against SHP2cat with OMFP. From the text: We confirmed specific and dose-dependent binding of inhibitors to SHP2 by PTS, which monitors the thermal stability of a target protein in vitro ([40]). […] In addition, we confirmed the inhibitory activity of several furanylbenzamide inhibitors, including the top two compounds SBI-2130 and SBI-4668, in SHP2cat inhibition assays using the alternative substrate 3-O-methylfluorescein phosphate (OMFP), which features a peak fluorescence emission that is red-shifted by ∼75 nm compared with DiFMUP. The Km value of OMFP for SHP2cat was determined to be 50 μM. An OMFP fluorescence intensity–based assay was used to perform inhibitor dose–response experiments and determine IC50 values.
SHP2 inhibitors were tested at RT in a 384-well plate format standard phosphatase fluorescence intensity assay using DiFMUP (Invitrogen/Thermo Fisher Scientific) as a substrate and a total reaction volume of 25 μl. […] Fluorescence intensity was measured in kinetic mode (every minute for 7 or 10 min) using a Tecan Spark Multimode Microplate Reader (Tecan) with an excitation wavelength of 360 nm and an emission wavelength of 460 nm. The initial rates were determined from the linear progression curves of the PTP reaction. […] IC50 values were calculated from the corrected initial rates by nonlinear regression using the program GraphPad Prism, version 8 (GraphPad Software, Inc) software. […]

The test system of another assay is BT-549 TNBC cells. Kind of assay: TNBC cell viability (CellTiter-Glo), BT-549. As to conditions: Homo sapiens, BT-549; 72 h per text; 5 days per legend and method. Type of assay: cell-based. As to the method: Inhibition of SHP2 has been reported to inhibit the growth of cancer cells including Kasumi-1 acute myeloid leukemia (AML) and KYSE-520 esophageal cancer cells ([30]). […] Thus, we treated two TNBC cell lines, BT-549 and MDA-MB-468, with SBI-4668 or the SHP2 allosteric inhibitor SHP099 at various concentrations and determined cell viability after 72 h, compared with the vehicle control (Fig. 4C). […] Next, we performed an 11-day colony formation assay with TNBC cells treated with SBI-4668 or SHP099 at 5, 10, or 20 μM (Fig. 4D).
Triple-negative breast cancer cell viability was assessed using the ATP-depletion assay CellTiter-Glo. Briefly, 2500 cells in 25 μl media (RPMI + 10% FBS + 1× penicillin–streptomycin [Omega Scientific]) were seeded per well of a 384-well tissue culture–treated plate (Greiner). About 25 nl of 1000× test compound were added using a Labcyte Echo acoustic dispenser, and the cells were incubated for 5 days before addition of 10 μl of CellTiter-Glo reagent as described by the manufacturer. Luminescence was detected on a BioTek Synergy 2 microplate reader, and the values normalized to those of vehicle (DMSO)-treated controls before being plotted using GraphPad Prism.

For assay [1], the system named is U-937 AML cells (G60R oncogenic mutation in SHP2). Kind of assay: Cell viability (CellTiter-Glo), U-937. It counts as cell-based. As to conditions: Homo sapiens, U-937, 72 h, 3 days, 0.123 to 30 μM. From the text: Oncogenic gain-of-function mutations in SHP2 drive leukemogenesis in a significant number of leukemia patients. However, because of their unique mechanism of action, the existing SHP2 allosteric inhibitors lack activity against the most common SHP2 oncogenic variants. Thus, we tested whether our inhibitors could inhibit the growth of leukemia cells expressing oncogenic SHP2 variants. […] Thus, we tested both SBI-4668 and RMC-4550 on U-937 AML cells, which harbor a G60R oncogenic mutation in SHP2. We treated cells with either SBI-4668 or RMC-4550 at various concentrations, ranging from 0.123 to 30 μM (Fig. 5A). […] We also assessed the effects of SBI-4668 and RMC-4550 on ERK1/2 activation in the SHP2 mutant U-937 cell line. […]
Viability of AML and esophageal carcinoma cells was assessed using the ATP-depletion assay CellTiter-Glo (Promega). Cells were harvested at 1 × 10^6/ml to 2 × 10^6 cells/ml with cell numbers determined by trypan blue using the Countess Cell counter (Thermo Scientific) and resuspended in culture media. […] Luminescence was read on a Tecan Spark Multimode Microplate Reader, and data were analyzed using GraphPad Prism software.
A general note: Cellular ATP, detected with luciferase, serves as a proxy for viable cell number.

Broadly, the pIC50 is the negative decadic logarithm of the IC50, by convention in mol/L. In the case of `Nc1ccc(NC(=O)c2cc(-c3ccc(/C=C4\Sc5ccccc5C4=O)o3)ccc2O)cc1` [SBI-2130, (Z)-N-(4-Aminophenyl)-2-hydroxy-5-(5-((3-oxobenzo[b]thiophen-2(3H)-ylidene)methyl)furan-2-yl)benzamide], the pIC50 on SHP2cat was 6.36.
For the molecule `O=C(Nc1ccccc1)c1cc(-c2ccc(/C=C3\Sc4ccccc4C3=O)o2)ccc1O` [SBI-4668, (Z)-2-Hydroxy-5-(5-((3-oxobenzo[b]thiophen-2(3H)-ylidene)methyl)furan-2-yl)-N-phenylbenzamide], the pIC50 is 5.92 at SHP2cat, 5.27 in the assay on BT-549 TNBC cells and 5.20 in assay [1].
